Results on seven molecules are retold here after US20200377599A1, “COMPOSITIONS AND METHODS FOR TREATING CANCER” (BETH ISRAEL DEACONESS MEDICAL CENTER, INC., priority 2017, published 2020).

Where a SMILES comes first, the peptide text is derived from it. The star is where a group is joined. Cbz = O=C(OCc1ccccc1)*

Assay [1] has as its system PD-L1 protein abundance in MC38, CT26, 4T1 and B16-F10 cells. Kind of assay: Immunoblot of PD-L1 in mouse tumor cell lines arrested in M phase. It counts as cell-based. Particulars: MC38, CT26, 4T1 and B16-F10 cells arrested in M phase; treated 20 hours. The text has this:
FIG. 1A, FIG. 1B, FIG. 1C, FIG. 1D, FIG. 1E, FIG. 1F, FIG. 1G, and FIG. 1H are images showing the protein abundance of PD-L1 as the protein fluctuates during cell cycle progression. […] FIG. 1B are the cell-cycle profiles in FIG. 1A, which were monitored by fluorescence-activated cell sorting (FACS) analysis of DNA content. […] FIG. 1E and FIG. 1F show IB analysis of WCL derived from MC38 tumor cells, which are derived from colon adenocarcinoma, or CT26 mouse tumor cells, which are colon carcinoma cells, treated with the indicated concentration of nocodazole for 20 hours before harvesting. FIG. 1G and FIG. 1H show IB analysis of WCL derived from 4T1 tumor cells, which are breast cancer cells, or CT26 mouse tumor cells treated with indicated concentration of taxol for 20 hours before harvesting. […]
(§1) Cells were lysed in EBC buffer (50 mM Tris pH 7.5, 120 mM NaCl, 0.5% NP-40) supplemented with protease inhibitors (Complete Mini, Roche) and phosphatase inhibitors (phosphatase inhibitor cocktail set I and II, Calbiochem). Protein concentrations were measured by the Beckman Coulter DU-800 spectrophotometer using the Bio-Rad protein assay reagent as described previously (Gao et al. Nat Cell Biol 11, 397-408 (2009)). […]

The test system of assay [2] is PD-L1 protein in C42 cells. Description: Immunoblot of PD-L1 in C42 cells treated with proteasome or cullin E3 ligase inhibitor. It counts as cell-based. The note with it: MG132 10 μM or MLN4924 1 μM, 12 hours. As to the method: FIG. 3K is a graph showing the excised tumor mass (mg) of B16-F10 tumors ectopically expressing SPOP Wild Type (WT) or SPOP-F102C mutant. The B16-F10 tumors were harvested after euthanizing the mice and tumor weight was recorded at the time of sacrifice. Data are represented as mean±S.D., N=5, and *p<0.05 (Student's t-test). FIG. 3L and FIG. 3M are graphs showing the relative cell surface PD-L1 expression and absolute CD3^+ T-cell populations from the isolated tumor-infiltrating lymphocytes in B16-F10 xenografted tumors ectopically expressing SPOP-WT or the SPOP-F102C mutant as determined by FACS analysis. Data are represented as mean±S.D., N=5, and *p<0.05 (Student's t-test). […] FIG. 3O and FIG. 3P are graphs showing the quantification of IHC analysis of PD-L1 protein levels and CD8^+ T cells in 82 cases of SPOP wild-type versus 15 cases of SPOP-mutant human prostate tumor specimens. **p<0.01 (Mann-Whitney test for PD-L1); *p<0.05 (Student's t-test for CD8).
as §1

Assay [3] deals with T1, PD-L1 (human, UniProt Q9NZQ7 19-290, limits assumed).
T1 construct: also called HA-PD-L1; PD-L1 WT
Kind of assay: co-immunoprecipitation from transfected 293T cells (FIG. 9E).

Assay [4] has as its target T2, SPOP-S6A mutant (UniProt O43791 1-374).
T2 construct: also called Flag-SPOP S6A; phosphorylation-deficient S6A mutant of SPOP
Kind of assay: co-immunoprecipitation from transfected 293T cells (FIG. 4H).

The target of assay [5] is T3, Cdh1 (UniProt Q9UM11 1-496, limits assumed).
T3 construct: Expressed in 293T cells or endogenous in MDA-MB-231 and HeLa cells; also called HA-Cdh1; APC/C E3 ligase adaptor protein Cdh1
Kind of assay: co-immunoprecipitation from transfected 293T cells (FIG. 4C). How it is done:
Cells were treated with 30 μM MG132 for 6 hours before harvesting. […] FIG. 4F are in vitro kinase assays showing that cyclin D1/CDK4 phosphorylates SPOP at Ser6, not Ser222. FIG. 4G and FIG. 4H show IB analysis of IP and WCL derived from 293T cells transfected with indicated constructs and treated with MG132 (10 μM) for 12 hours before harvesting. […] Tumor volume were measured every three days and plotted individually. […]

T3 sequence (Q9UM11 whole entry): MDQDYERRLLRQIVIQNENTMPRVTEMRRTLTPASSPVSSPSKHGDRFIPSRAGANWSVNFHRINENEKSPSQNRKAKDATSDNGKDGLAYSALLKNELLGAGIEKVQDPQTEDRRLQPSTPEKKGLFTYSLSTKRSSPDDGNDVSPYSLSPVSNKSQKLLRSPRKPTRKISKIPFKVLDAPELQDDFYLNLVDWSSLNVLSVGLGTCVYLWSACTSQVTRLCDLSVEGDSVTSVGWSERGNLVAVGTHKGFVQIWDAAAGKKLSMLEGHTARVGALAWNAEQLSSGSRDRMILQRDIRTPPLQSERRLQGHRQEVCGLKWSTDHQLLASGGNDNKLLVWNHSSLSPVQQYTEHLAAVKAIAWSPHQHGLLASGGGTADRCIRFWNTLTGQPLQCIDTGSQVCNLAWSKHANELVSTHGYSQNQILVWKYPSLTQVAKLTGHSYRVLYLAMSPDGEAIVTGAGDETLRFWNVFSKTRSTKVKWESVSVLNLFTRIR
T1 sequence (Q9NZQ7 19-290 limits assumed): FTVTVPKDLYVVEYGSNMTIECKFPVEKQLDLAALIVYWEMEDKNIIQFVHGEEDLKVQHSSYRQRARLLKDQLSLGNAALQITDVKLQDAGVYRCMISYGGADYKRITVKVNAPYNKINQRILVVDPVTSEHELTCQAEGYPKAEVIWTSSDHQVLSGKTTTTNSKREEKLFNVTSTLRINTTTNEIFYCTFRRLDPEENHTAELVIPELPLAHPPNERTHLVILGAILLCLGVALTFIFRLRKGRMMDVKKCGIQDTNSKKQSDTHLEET

Consider `CC(=O)O[C@H]1C(=O)[C@@]2(C)[C@H]([C@H](OC(=O)c3ccccc3)[C@]3(O)C[C@H](OC(=O)[C@H](O)[C@@H](NC(=O)c4ccccc4)c4ccccc4)C(C)=C1C3(C)C)[C@]1(OC(C)=O)CO[C@@H]1C[C@@H]2O` [Taxol], for which the PD-L1 protein abundance entry in assay [1] was “Elevated PD-L1 protein abundance”.
For `NS(=O)(=O)OC[C@@H]1C[C@@H](n2ccc3c(N[C@H]4CCc5ccccc54)ncnc32)C[C@@H]1O` [MLN4924], the PD-L1 protein stability entry in assay [2] is reported as “stabilized PD-L1 protein”.
For the molecule `COC(=O)Nc1nc2ccc(C(=O)c3cccs3)cc2[nH]1` [nocodazole], the PD-L1 protein abundance entry in assay [1] is “Elevated PD-L1 protein abundance”.
For `CC(C)C[C@@H](C=O)NC(=O)[C@H](CC(C)C)NC(=O)[C@H](CC(C)C)NC(=O)OCc1ccccc1` [MG132] (Cbz-Leu-Leu-Leu-aldehyde), the PD-L1 protein stability entry in assay [2] was “stabilized PD-L1 protein”.

B1: SPOP delta MATH (other, UniProt O43791 1-374, looked up)
chain: MSRVPSPPPPAEMSSGPVAESWCYTQIKVVSVVQDSVNISGQNTMNMVKVPECRLADELGGLWENSRFTDCCLCVAGQEFQAHKAILAARSPVFSAMFEHEMEESKKNRVEINDVEPEVFKEMMCFIYTGKAPNLDKMADDLLAAADKYALERLKVMCEDALCSNLSVENAAEILILADLHSADQLKTQAVDFINYHASDVLETSGWKSMVVSHPHLVAEAYRSLASAQCPFLGPPRKRLKQS
notes: also called SPOP with the MATH domain deleted; Flag-tagged SPOP delta MATH
As to B1, in assay [3], the binding result is listed as “no binding”.

B2: 14-3-3γ (other, UniProt P61981 1-247, looked up)
chain: MVDREQLVQKARLAEQAERYDDMAAAMKNVTELNEPLSNEERNLLSVAYKNVVGARRSSWRVISSIEQKTSADGNEKKIEMVRAYREKIEKELEAVCQDVLSLLDNYLIKNCSETQYESKVFYLKMKGDYYRYLAEVATGEKRATVVESSEKAYSEAHEISKEHMQPTHPIRLGLALNYSVFYYEIQNAPEQACHLAKTAFDDAIAELDTLNEDSYKDSTLIMQLLRDNLTLWTSDQQDDDGGEGNN
notes: One of the HA-14-3-3 isoform constructs; also called HA-14-3-3γ
Regarding B2, in assay [4], the binding result is reported as “no binding”.

B3: Flag-SPOP with delta D-Box (RxxL) (other, UniProt O43791 1-374, looked up)
chain: MSRVPSPPPPAEMSSGPVAESWCYTQIKVVKFSYMWTINNFSFCREEMGEVIKSSTFSSGANDKLKWCLRVNPKGLDEESKDYLSLYLLLVSCPKSEVRAKFKFSILNAKGEETKAMESQRAYRFVQGKDWGFKKFIRLDEANGLLPDDKLTLFCEVSVVQDSVNISGQNTMNMVKVPECRLADELGGLWENSRFTDCCLCVAGQEFQAHKAILAARSPVFSAMFEHEMEESKKNRVEINDVEPEVFKEMMCFIYTGKAPNLDKMADDLLAAADKYALERLKVMCEDALCSNLSVENAAEILILADLHSADQLKTQAVDFINYHASDVLETSGWKSMVVSHPHLVAEAYRSLASAQCPFLGPPRKRLKQS
notes: also called SPOP deletion of RxxL mutant; SPOP D-box deletion
Consider B3, for which the binding result in assay [5] was “no binding”.
